Consider four compounds from article PMC12143796, “Virtual screening of a random tripeptide library for easily prepared inhibitors of insect chitinolytic enzymes” (The Cell Surface, 2025).

What all share (type): biochemical
Experiment [1] addresses T1, OfChtI (Ostrinia furnacalis, UniProt Q2V6H4).
T1 construct: PDB id is that of the docking structure
As to the kind of experiment: fluorescence assay of released 4-methylumbelliferone. The settings on record: read-out: % inhibition at 1 mM.

Experiment [2] concerns the target T2, OfHex1 (Ostrinia furnacalis, UniProt Q06GJ0).
T2 construct: PDB id is that of the docking structure
T2 sequence (Q06GJ0 23-594): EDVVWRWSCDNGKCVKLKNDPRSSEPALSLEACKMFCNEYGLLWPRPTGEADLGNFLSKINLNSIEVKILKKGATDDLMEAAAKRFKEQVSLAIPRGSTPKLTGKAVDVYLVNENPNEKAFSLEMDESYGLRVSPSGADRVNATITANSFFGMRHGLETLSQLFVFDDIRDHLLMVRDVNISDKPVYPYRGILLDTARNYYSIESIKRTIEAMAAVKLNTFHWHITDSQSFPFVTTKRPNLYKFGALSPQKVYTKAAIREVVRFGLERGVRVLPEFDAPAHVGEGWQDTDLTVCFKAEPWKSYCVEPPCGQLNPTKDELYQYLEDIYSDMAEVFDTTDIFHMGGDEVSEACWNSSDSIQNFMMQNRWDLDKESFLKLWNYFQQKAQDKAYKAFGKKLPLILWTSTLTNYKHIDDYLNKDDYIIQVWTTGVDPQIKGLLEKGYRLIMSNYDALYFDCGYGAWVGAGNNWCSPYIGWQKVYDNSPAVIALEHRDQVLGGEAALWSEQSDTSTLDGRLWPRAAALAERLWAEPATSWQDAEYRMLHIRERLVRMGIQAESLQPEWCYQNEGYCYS
Described as above. The settings on record: read-out: % inhibition at 1 mM.

The target in experiment [3] is T3, OfChi-h (Ostrinia furnacalis, UniProt Q4AE59).
T3 construct: PDB id is that of the docking structure
T3 sequence (Q4AE59 18-553): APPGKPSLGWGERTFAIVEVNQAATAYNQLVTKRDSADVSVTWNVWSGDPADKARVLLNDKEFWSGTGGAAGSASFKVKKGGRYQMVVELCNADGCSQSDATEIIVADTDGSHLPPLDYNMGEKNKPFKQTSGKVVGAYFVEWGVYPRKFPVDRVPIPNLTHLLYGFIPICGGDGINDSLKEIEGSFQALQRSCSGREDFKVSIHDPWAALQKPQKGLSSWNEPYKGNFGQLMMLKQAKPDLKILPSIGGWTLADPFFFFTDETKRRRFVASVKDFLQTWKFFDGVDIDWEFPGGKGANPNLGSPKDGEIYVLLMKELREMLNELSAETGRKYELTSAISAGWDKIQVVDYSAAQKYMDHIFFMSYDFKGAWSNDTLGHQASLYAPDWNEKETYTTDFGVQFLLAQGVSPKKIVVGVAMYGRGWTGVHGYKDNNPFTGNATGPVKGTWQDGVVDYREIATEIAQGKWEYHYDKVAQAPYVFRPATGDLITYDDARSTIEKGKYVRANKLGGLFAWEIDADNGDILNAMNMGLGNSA
The experiment is described as above. The settings on record: read-out: % inhibition at 1 mM.

The target in experiment [4] is T2, OfHex1. Put plainly: fluorescence of released 4-methylumbelliferone. As to conditions: 10 μM substrate, 20 mM sodium phosphate pH 6.0, 30 °C, 30 min.

Broadly, the inhibition is the relative decrease from the control value, in per cent.

Residues, ends and D or L forms follow the SMILES beside them.

T1 sequence (Q2V6H4 19-407): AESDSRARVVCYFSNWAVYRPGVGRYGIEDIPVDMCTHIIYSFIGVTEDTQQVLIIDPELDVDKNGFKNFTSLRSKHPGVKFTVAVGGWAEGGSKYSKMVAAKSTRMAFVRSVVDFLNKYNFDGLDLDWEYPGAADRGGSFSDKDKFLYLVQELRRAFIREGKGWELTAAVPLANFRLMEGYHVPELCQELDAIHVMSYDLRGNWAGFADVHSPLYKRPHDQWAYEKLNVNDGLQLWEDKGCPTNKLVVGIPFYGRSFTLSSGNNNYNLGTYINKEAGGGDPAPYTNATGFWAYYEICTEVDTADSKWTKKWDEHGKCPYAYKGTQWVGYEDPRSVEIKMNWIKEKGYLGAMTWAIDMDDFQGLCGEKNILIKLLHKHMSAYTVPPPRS

For the compound `NC(=O)CC[C@H](N)C(=O)N[C@@H](Cc1c[nH]c2ccccc12)C(=O)N[C@@H](Cc1c[nH]c2ccccc12)C(=O)O` [QWW] (H-Gln-Trp-Trp-OH), the inhibition at 1000 µM in experiment [1] is 55.3%. On to `N[C@@H](Cc1ccccc1)C(=O)N1CCC[C@H]1C(=O)N[C@@H](Cc1ccc(O)cc1)C(=O)O` [FPY] (H-Phe-Pro-Tyr-OH), for which the inhibition at 1000 µM in experiment [1] and in experiment [2] was under 50% each time.

In the case of `N[C@@H](Cc1ccc(O)cc1)C(=O)N[C@@H](Cc1ccccc1)C(=O)N1CCC[C@H]1C(=O)O` [YFP] (H-Tyr-Phe-Pro-OH), the figures for the inhibition at 1000 µM in experiment [1], in experiment [2] and in experiment [3] were under 50%, under 50% and 14.8%, respectively.

With `CC(=O)N[C@H]1[C@H](Oc2ccc3c(C)cc(=O)oc3c2)O[C@H](CO)[C@@H](O)[C@@H]1O` [MU-GlcNAc], in experiment [4], the “fluorescence of released 4-methylumbelliferone” value is reported as “the substrate for OfHex1 was MU-GlcNAc”.
